Usually LD50 stands for the dose expected to kill half of the subjects tested.

≈ marks a conversion by molar mass, not a printed value.

The test system of the first data set is Streptococcus faecalis. The experiment in a line: minimum inhibitory concentration, gradient plate method, Streptococcus faecalis. The class given is cell-based. Details: key to partial resistancy, Bacteria, Str: partial resistancy observed.
Conditions: not given
From the text: (§1) Test evaluation was made three days after inoculation.
Consider `Clc1ccc(C(Cn2ccnc2)SCCCOc2ccccc2)c(Cl)c1` (stereo not drawn) [Example 32, 1-[β-(phenoxypropylthio)-2,4-dichlorophenethyl]-imidazole], for which the “partial resistancy, Bacteria, Str” value is given as “r”.

As to `Clc1ccc(SCCCSC(Cn2ccnc2)c2ccc(Cl)cc2Cl)cc1` (stereo not drawn) [Example 34, 1-{β-[3-(p-chlorophenylthiopropylthio)]-2,4-dichlorophenethyl}-imidazole nitrate], the “partial resistancy, Bacteria, Str” value was “r”.

As to `Clc1ccc(OCCCCOC(Cn2ccnc2)c2ccc(Cl)cc2Cl)cc1.O=[N+]([O-])O` (stereo not drawn) [Example 35, 1-{β-[4-(p-chlorophenoxy)-butoxy]-2,4-dichlorophenethyl}-imidazole nitrate], the “partial resistancy, Bacteria, Str” value is recorded as “r”.

As to `Clc1ccc(SCCCCOC(Cn2ccnc2)c2ccc(Cl)cc2Cl)cc1` (stereo not drawn) [Example 36, 1-{β-[4-(p-chlorophenylthio)-butoxy]-2,4-dichlorophenethyl}-imidazolenitrate], the “partial resistancy, Bacteria, Str” value is recorded as “r”.

The same data set, now with this note: Enterococcus faecalis, 72 h, gradient 0-100 μg/ml, 10% aqueous dimethyl formamide, evaluated three days after inoculation, read-out: Minimum Inhibitory Concentration, Bacteria, Str.
For the compound `Clc1ccc(COC(Cn2ccnc2)c2ccc(Cl)cc2Cl)cc1` (stereo not shown) [ECONAZOLE, reference compound], the MIC is less than 10 µg/mL.

Take `Clc1ccc(SCOC(Cn2ccnc2)c2ccc(Cl)cc2Cl)nc1` (stereo not drawn) [Example 26, 1-β[(5'-chloropyridyl-2'-thiomethoxy)-2,4-dichlorophenethyl)]-imidazole nitrate]: the MIC is 20 µg/mL.

Take `Clc1ccc(C(Cn2ccnc2)OCCOc2ccccc2)c(Cl)c1` (stereo not drawn) [Example 27, 1-β-(phenoxyethoxy-2,4-dichlorophenethyl)-imidazole nitrate]: the MIC was determined as 30 µg/mL.

With `Clc1ccc(OCCOC(Cn2ccnc2)c2ccc(Cl)cc2Cl)cc1` (stereo not drawn) [Example 28, 1-[β-(p-chlorophenoxyethoxy)-2,4-dichlorophenethyl)]-imidazole nitrate], the MIC was determined as 10 µg/mL.

On to `Clc1ccc(OCCCOC(Cn2ccnc2)c2ccc(Cl)cc2Cl)cc1` (stereo not drawn) [Example 30, 1-{β-[3-(p-chlorophenoxy)-propoxy-2,4-dichlorophenethyl]}-imidazole nitrate], for which the MIC is less than 10 µg/mL.

Consider `Clc1ccc(SCCCOC(Cn2ccnc2)c2ccc(Cl)cc2Cl)cc1.O=[N+]([O-])O` (stereo not drawn) [Example 31, 1-{β-[3-(p-chlorophenylthio)-propoxy]-2,4-dichlorophenethyl}-imidazole nitrate], for which the MIC was less than 10 µg/mL.

For `Clc1ccc(OCCCSC(Cn2ccnc2)c2ccc(Cl)cc2Cl)cc1` (stereo not drawn) [Example 33, 1-{β-[3-(p-chlorophenoxy)-propylthio-2,4-dichlorophenethyl]}-imidazole], the MIC stood at 10 µg/mL (≈ 22.6 µM).

The subject of a further data set is Aspergillus niger. As to the kind of experiment: minimum inhibitory concentration, gradient plate method, Aspergillus niger. The class given is cell-based. Details: key to partial resistancy, Fungi, Asp: partial resistancy observed.
Conditions: not given
Excerpt: as §1
In the case of `Clc1ccc(SCCCSC(Cn2ccnc2)c2ccc(Cl)cc2Cl)cc1` (stereo not drawn) [Example 34, 1-{β-[3-(p-chlorophenylthiopropylthio)]-2,4-dichlorophenethyl}-imidazole nitrate], the “partial resistancy, Fungi, Asp” value is “r”.

The data set is the same for the next values; noted with them: 72 h, gradient 0-100 μg/ml, 10% aqueous dimethyl formamide, evaluated three days after inoculation, read-out: Minimum Inhibitory Concentration, Fungi, Asp.
As to `Clc1ccc(COC(Cn2ccnc2)c2ccc(Cl)cc2Cl)cc1` (stereo not shown) [ECONAZOLE, reference compound], the MIC was less than 10 µg/mL.

Consider `Clc1ccc(SCOC(Cn2ccnc2)c2ccc(Cl)cc2Cl)nc1` (stereo not drawn) [Example 26, 1-β[(5'-chloropyridyl-2'-thiomethoxy)-2,4-dichlorophenethyl)]-imidazole nitrate], for which the MIC was less than 10 µg/mL.

Regarding `Clc1ccc(C(Cn2ccnc2)OCCOc2ccccc2)c(Cl)c1` (stereo not drawn) [Example 27, 1-β-(phenoxyethoxy-2,4-dichlorophenethyl)-imidazole nitrate], the MIC was less than 10 µg/mL.

Turning to `Clc1ccc(OCCOC(Cn2ccnc2)c2ccc(Cl)cc2Cl)cc1` (stereo not drawn) [Example 28, 1-[β-(p-chlorophenoxyethoxy)-2,4-dichlorophenethyl)]-imidazole nitrate], the MIC was less than 10 µg/mL.

Turning to `Clc1ccc(OCCCOC(Cn2ccnc2)c2ccc(Cl)cc2Cl)cc1` (stereo not drawn) [Example 30, 1-{β-[3-(p-chlorophenoxy)-propoxy-2,4-dichlorophenethyl]}-imidazole nitrate], the MIC was less than 10 µg/mL.

Take `Clc1ccc(SCCCOC(Cn2ccnc2)c2ccc(Cl)cc2Cl)cc1.O=[N+]([O-])O` (stereo not drawn) [Example 31, 1-{β-[3-(p-chlorophenylthio)-propoxy]-2,4-dichlorophenethyl}-imidazole nitrate]: the MIC is less than 10 µg/mL.

With `Clc1ccc(C(Cn2ccnc2)SCCCOc2ccccc2)c(Cl)c1` (stereo not drawn) [Example 32, 1-[β-(phenoxypropylthio)-2,4-dichlorophenethyl]-imidazole], the MIC is less than 10 µg/mL.

`Clc1ccc(OCCCSC(Cn2ccnc2)c2ccc(Cl)cc2Cl)cc1` (stereo not drawn) [Example 33, 1-{β-[3-(p-chlorophenoxy)-propylthio-2,4-dichlorophenethyl]}-imidazole]: the MIC was determined as 25 µg/mL (≈ 56.6 µM).

`Clc1ccc(OCCCCOC(Cn2ccnc2)c2ccc(Cl)cc2Cl)cc1.O=[N+]([O-])O` (stereo not drawn) [Example 35, 1-{β-[4-(p-chlorophenoxy)-butoxy]-2,4-dichlorophenethyl}-imidazole nitrate]: the MIC is less than 10 µg/mL.

Regarding `Clc1ccc(SCCCCOC(Cn2ccnc2)c2ccc(Cl)cc2Cl)cc1` (stereo not drawn) [Example 36, 1-{β-[4-(p-chlorophenylthio)-butoxy]-2,4-dichlorophenethyl}-imidazolenitrate], the MIC was found to be 35 µg/mL (≈ 76.8 µM).

The test system of a further data set is mice.
Assay: not given
Conditions: oral, value as reported by Thienpont et al, Arzneimittelforschung 1975, 25, 224; cited from earlier work.
For the compound `Clc1ccc(COC(Cn2ccnc2)c2ccc(Cl)cc2Cl)cc1` (stereo not shown) [ECONAZOLE, reference compound], the “Toxicity LD50 per os” value is recorded as 462.7 mg/kg.

System in a further data set: not listed separately
The experiment in a line: oral toxicity LD50 per os, mice. Conditions: mouse, in vivo.
From the text: (§2) The results of these tests are summarized in the following Table I together with the oral toxicity values (LD50 per os; mice, values in mg per kg of body weight) determined in the conventional manner.
Consider `Clc1ccc(SCCCOC(Cn2ccnc2)c2ccc(Cl)cc2Cl)cc1.O=[N+]([O-])O` (stereo not drawn) [Example 31, 1-{β-[3-(p-chlorophenylthio)-propoxy]-2,4-dichlorophenethyl}-imidazole nitrate], for which the LD50 was found to be 4300 mg/kg.

In the case of `Clc1ccc(OCCCCOC(Cn2ccnc2)c2ccc(Cl)cc2Cl)cc1.O=[N+]([O-])O` (stereo not drawn) [Example 35, 1-{β-[4-(p-chlorophenoxy)-butoxy]-2,4-dichlorophenethyl}-imidazole nitrate], the LD50 is greater than 4000 mg/kg.

System in another data set: not listed separately
The experiment in a line: in vivo. Conditions: mouse, po.
From the text: as §2
Consider `Clc1ccc(SCOC(Cn2ccnc2)c2ccc(Cl)cc2Cl)nc1` (stereo not drawn) [Example 26, 1-β[(5'-chloropyridyl-2'-thiomethoxy)-2,4-dichlorophenethyl)]-imidazole nitrate], for which the LD50 is roughly 2700 mg/kg.

In turn, `Clc1ccc(C(Cn2ccnc2)OCCOc2ccccc2)c(Cl)c1` (stereo not drawn) [Example 27, 1-β-(phenoxyethoxy-2,4-dichlorophenethyl)-imidazole nitrate] had a 50% lethal dose (LD50) of roughly 800 mg/kg.

In turn, `Clc1ccc(OCCOC(Cn2ccnc2)c2ccc(Cl)cc2Cl)cc1` (stereo not drawn) [Example 28, 1-[β-(p-chlorophenoxyethoxy)-2,4-dichlorophenethyl)]-imidazole nitrate] registered an LD50 greater than 3000 mg/kg.

Turning to `Clc1ccc(OCCCOC(Cn2ccnc2)c2ccc(Cl)cc2Cl)cc1` (stereo not drawn) [Example 30, 1-{β-[3-(p-chlorophenoxy)-propoxy-2,4-dichlorophenethyl]}-imidazole nitrate], the LD50 is greater than 4000 mg/kg.

In the case of `Clc1ccc(C(Cn2ccnc2)SCCCOc2ccccc2)c(Cl)c1` (stereo not drawn) [Example 32, 1-[β-(phenoxypropylthio)-2,4-dichlorophenethyl]-imidazole], the LD50 is greater than 2000 mg/kg.

`Clc1ccc(OCCCSC(Cn2ccnc2)c2ccc(Cl)cc2Cl)cc1` (stereo not drawn) [Example 33, 1-{β-[3-(p-chlorophenoxy)-propylthio-2,4-dichlorophenethyl]}-imidazole]: the LD50 was greater than 1000 mg/kg.

Regarding `Clc1ccc(SCCCSC(Cn2ccnc2)c2ccc(Cl)cc2Cl)cc1` (stereo not drawn) [Example 34, 1-{β-[3-(p-chlorophenylthiopropylthio)]-2,4-dichlorophenethyl}-imidazole nitrate], the LD50 was greater than 3000 mg/kg.

`Clc1ccc(SCCCCOC(Cn2ccnc2)c2ccc(Cl)cc2Cl)cc1` (stereo not drawn) [Example 36, 1-{β-[4-(p-chlorophenylthio)-butoxy]-2,4-dichlorophenethyl}-imidazolenitrate] displayed an LD50 greater than 3000 mg/kg.

The next data set relates to Trichophyton mentagrophytes. The experiment in a line: minimum inhibitory concentration, gradient plate method, Trichophyton mentagrophytes. In kind it is cell-based. The settings on record: 72 h, gradient 0-100 μg/ml, 10% aqueous dimethyl formamide, evaluated three days after inoculation, read-out: Minimum Inhibitory Concentration, Fungi, Tri.
Excerpt: as §1
For `Clc1ccc(COC(Cn2ccnc2)c2ccc(Cl)cc2Cl)cc1` (stereo not shown) [ECONAZOLE, reference compound], the MIC was less than 10 µg/mL.

Turning to `Clc1ccc(SCOC(Cn2ccnc2)c2ccc(Cl)cc2Cl)nc1` (stereo not drawn) [Example 26, 1-β[(5'-chloropyridyl-2'-thiomethoxy)-2,4-dichlorophenethyl)]-imidazole nitrate], the MIC was less than 10 µg/mL.

For `Clc1ccc(C(Cn2ccnc2)OCCOc2ccccc2)c(Cl)c1` (stereo not drawn) [Example 27, 1-β-(phenoxyethoxy-2,4-dichlorophenethyl)-imidazole nitrate], the MIC is less than 10 µg/mL.

Turning to `Clc1ccc(OCCOC(Cn2ccnc2)c2ccc(Cl)cc2Cl)cc1` (stereo not drawn) [Example 28, 1-[β-(p-chlorophenoxyethoxy)-2,4-dichlorophenethyl)]-imidazole nitrate], the MIC is less than 10 µg/mL.

`Clc1ccc(OCCCOC(Cn2ccnc2)c2ccc(Cl)cc2Cl)cc1` (stereo not drawn) [Example 30, 1-{β-[3-(p-chlorophenoxy)-propoxy-2,4-dichlorophenethyl]}-imidazole nitrate]: the MIC was less than 10 µg/mL.

`Clc1ccc(SCCCOC(Cn2ccnc2)c2ccc(Cl)cc2Cl)cc1.O=[N+]([O-])O` (stereo not drawn) [Example 31, 1-{β-[3-(p-chlorophenylthio)-propoxy]-2,4-dichlorophenethyl}-imidazole nitrate]: the MIC is less than 10 µg/mL.

As to `Clc1ccc(C(Cn2ccnc2)SCCCOc2ccccc2)c(Cl)c1` (stereo not drawn) [Example 32, 1-[β-(phenoxypropylthio)-2,4-dichlorophenethyl]-imidazole], the MIC was less than 10 µg/mL.

For `Clc1ccc(OCCCSC(Cn2ccnc2)c2ccc(Cl)cc2Cl)cc1` (stereo not drawn) [Example 33, 1-{β-[3-(p-chlorophenoxy)-propylthio-2,4-dichlorophenethyl]}-imidazole], the MIC is less than 10 µg/mL.

On to `Clc1ccc(SCCCSC(Cn2ccnc2)c2ccc(Cl)cc2Cl)cc1` (stereo not drawn) [Example 34, 1-{β-[3-(p-chlorophenylthiopropylthio)]-2,4-dichlorophenethyl}-imidazole nitrate], for which the MIC was less than 10 µg/mL.

Regarding `Clc1ccc(OCCCCOC(Cn2ccnc2)c2ccc(Cl)cc2Cl)cc1.O=[N+]([O-])O` (stereo not drawn) [Example 35, 1-{β-[4-(p-chlorophenoxy)-butoxy]-2,4-dichlorophenethyl}-imidazole nitrate], the MIC is less than 10 µg/mL.

On to `Clc1ccc(SCCCCOC(Cn2ccnc2)c2ccc(Cl)cc2Cl)cc1` (stereo not drawn) [Example 36, 1-{β-[4-(p-chlorophenylthio)-butoxy]-2,4-dichlorophenethyl}-imidazolenitrate], for which the MIC is less than 10 µg/mL.

In another data set the test system is Staphylococcus aureus haemolyticus. The experiment in a line: minimum inhibitory concentration, gradient plate method, Staphylococcus aureus haemolyticus. The class given is cell-based. Set-up: key to partial resistancy, Bacteria, St: partial resistancy observed.
Conditions: not given
Excerpt: as §1
In the case of `Clc1ccc(C(Cn2ccnc2)OCCOc2ccccc2)c(Cl)c1` (stereo not drawn) [Example 27, 1-β-(phenoxyethoxy-2,4-dichlorophenethyl)-imidazole nitrate], the “partial resistancy, Bacteria, St” value is recorded as “r”.

Still in this data set, the particulars now being: 72 h, gradient 0-100 μg/ml, 10% aqueous dimethyl formamide, evaluated three days after inoculation, read-out: Minimum Inhibitory Concentration, Bacteria, St.
In the case of `Clc1ccc(COC(Cn2ccnc2)c2ccc(Cl)cc2Cl)cc1` (stereo not shown) [ECONAZOLE, reference compound], the MIC was less than 10 µg/mL.

As for `Clc1ccc(SCOC(Cn2ccnc2)c2ccc(Cl)cc2Cl)nc1` (stereo not drawn) [Example 26, 1-β[(5'-chloropyridyl-2'-thiomethoxy)-2,4-dichlorophenethyl)]-imidazole nitrate], the MIC turned out to be 10 µg/mL.

As to `Clc1ccc(OCCOC(Cn2ccnc2)c2ccc(Cl)cc2Cl)cc1` (stereo not drawn) [Example 28, 1-[β-(p-chlorophenoxyethoxy)-2,4-dichlorophenethyl)]-imidazole nitrate], the MIC is less than 10 µg/mL.

As to `Clc1ccc(OCCCOC(Cn2ccnc2)c2ccc(Cl)cc2Cl)cc1` (stereo not drawn) [Example 30, 1-{β-[3-(p-chlorophenoxy)-propoxy-2,4-dichlorophenethyl]}-imidazole nitrate], the MIC was less than 10 µg/mL.

Consider `Clc1ccc(SCCCOC(Cn2ccnc2)c2ccc(Cl)cc2Cl)cc1.O=[N+]([O-])O` (stereo not drawn) [Example 31, 1-{β-[3-(p-chlorophenylthio)-propoxy]-2,4-dichlorophenethyl}-imidazole nitrate], for which the MIC is less than 10 µg/mL.

For `Clc1ccc(C(Cn2ccnc2)SCCCOc2ccccc2)c(Cl)c1` (stereo not drawn) [Example 32, 1-[β-(phenoxypropylthio)-2,4-dichlorophenethyl]-imidazole], the MIC is less than 10 µg/mL.

Take `Clc1ccc(OCCCSC(Cn2ccnc2)c2ccc(Cl)cc2Cl)cc1` (stereo not drawn) [Example 33, 1-{β-[3-(p-chlorophenoxy)-propylthio-2,4-dichlorophenethyl]}-imidazole]: the MIC was less than 10 µg/mL.

`Clc1ccc(SCCCSC(Cn2ccnc2)c2ccc(Cl)cc2Cl)cc1` (stereo not drawn) [Example 34, 1-{β-[3-(p-chlorophenylthiopropylthio)]-2,4-dichlorophenethyl}-imidazole nitrate]: the MIC was 10 µg/mL.

For `Clc1ccc(OCCCCOC(Cn2ccnc2)c2ccc(Cl)cc2Cl)cc1.O=[N+]([O-])O` (stereo not drawn) [Example 35, 1-{β-[4-(p-chlorophenoxy)-butoxy]-2,4-dichlorophenethyl}-imidazole nitrate], the MIC was determined as 10 µg/mL.

For `Clc1ccc(SCCCCOC(Cn2ccnc2)c2ccc(Cl)cc2Cl)cc1` (stereo not drawn) [Example 36, 1-{β-[4-(p-chlorophenylthio)-butoxy]-2,4-dichlorophenethyl}-imidazolenitrate], the MIC was less than 10 µg/mL.

Source of the values: patent publication US4177350A, “Imidazole ethyl oxyalkoxy derivatives and thio analogues thereof” (Siegfried Aktiengesellschaft, priority 1977, dated 1979).
